Assay results reported in patent US9200046B2, “Reporter system for high throughput screening of compounds and uses thereof” (priority 2011, dated 2015).
Counter-ions that a name gives are not always drawn. Like-named read-outs stand apart in the source and are kept apart here.

Molecular target: Nrf2-Keap1 complex (Homo sapiens, UniProt Q14145)
Assay: cell-based
Type: cell-based
Settings: for activation at 16 µM / activation at 32 µM: 3 h; for activation at 16 µM: read-out: Activation 100 nL; for activation at 32 µM: read-out: Activation 200 nL
[1] = Table 2, 100 nL compound, screen run at 16 and 32 μM, 3 hr
[2] = Table 2, 200 nL compound, screen run at 16 and 32 μM, 3 hr
[3] = Table 1A, 100 nL compound, screen run at 16 and 32 μM, 3 hr
[4] = Table 1A, 200 nL compound, screen run at 16 and 32 μM, 3 hr

Chain of Nrf2-Keap1 complex (Q14145 whole entry, one chain of several): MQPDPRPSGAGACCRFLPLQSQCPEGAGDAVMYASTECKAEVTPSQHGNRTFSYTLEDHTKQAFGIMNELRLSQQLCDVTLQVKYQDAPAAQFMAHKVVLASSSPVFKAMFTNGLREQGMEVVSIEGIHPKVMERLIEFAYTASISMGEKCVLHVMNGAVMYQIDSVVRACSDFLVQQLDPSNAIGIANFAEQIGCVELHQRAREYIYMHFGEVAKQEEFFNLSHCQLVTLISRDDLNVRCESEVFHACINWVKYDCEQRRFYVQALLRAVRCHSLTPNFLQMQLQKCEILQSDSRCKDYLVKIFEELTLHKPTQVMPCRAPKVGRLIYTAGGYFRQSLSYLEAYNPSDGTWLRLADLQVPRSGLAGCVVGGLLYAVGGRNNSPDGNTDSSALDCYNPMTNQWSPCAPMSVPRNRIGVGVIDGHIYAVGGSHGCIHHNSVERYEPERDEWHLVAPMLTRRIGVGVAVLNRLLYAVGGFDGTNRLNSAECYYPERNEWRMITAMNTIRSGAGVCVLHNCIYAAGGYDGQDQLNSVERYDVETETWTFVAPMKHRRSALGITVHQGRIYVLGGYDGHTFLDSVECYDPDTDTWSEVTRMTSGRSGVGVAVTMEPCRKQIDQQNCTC

SMILES | Activation 100 nL | Activation 200 nL | 100 nL (luminescence) [1] | 200 nL (luminescence) [2] | activation at 16 µM | activation at 32 µM | 100 nL (luminescence) [3] | 200 nL (luminescence) [4] | 100 nL (luminescence) | 200 nL (luminescence)
CC(=O)O[C@H]1CC[C@]2(C)C(C[C@@H](OC(C)=O)[C@]3(C)C4=CC(=O)O[C@H](c5ccoc5)[C@@]4(C)CCC23)C1(C)C (stereo partly drawn) [3-DEOXO-3beta-ACETOXYDEOXYDIHYDROGEDUNIN] | 59% | 61% | 1256 | 1252 |  |  |  |  |  | 
CCC(C)C(=O)c1c(O)c(C)c2oc3c(C)c(O)c(C(=O)C(C)CC)c(O)c3c2c1O (centres unmarked) [RHODOMYRTOXINB] |  |  |  |  | 56% | 36% | 1120 | 1276 |  | 
COc1ccc2c(c1)OC/C(=C/c1ccc(OC)c(OC)c1)C2=O [SAPPANONEATRIMETHYLETHER] |  |  | 3652 | 2586 | 246% | 93% |  |  |  | 
CCCCC1C(=O)N(c2ccccc2)N(c2ccc(O)cc2)C1=O (centres unmarked) [OXYPHENBUTAZONE, reference compound] | 113% | 131% | 1760 | 3084 |  |  |  |  |  | 
O=c1c(-c2ccccc2)coc2cc(O)cc(O)c12 [5,7-DIHYDROXYISOFLAVONE] |  |  | 964 | 1776 | 45% | 58% |  |  |  | 
O=C(NC(=O)c1c(F)cccc1F)Nc1cc(Cl)c(OC(F)(F)C(F)C(F)(F)F)cc1Cl (centres unmarked) [LUFENURON] |  |  |  |  | 32% | 29% |  |  | 644 | 1022
CCCSc1ccc2nc(NC(=O)OC)[nH]c2c1 [ALBENDAZOLE, reference compound] |  |  |  |  | 191% | 272% |  |  | 4200 | 5292
O=C1C=C(O)C(=O)c2ccccc21 [LAWSONE] |  |  |  |  | 54% | 34% |  |  | 840 | 1140
C[C@@H]1C[C@H]2[C@@H]3CCC4=CC(=O)C=C[C@]4(C)[C@@]3(Cl)[C@@H](O)C[C@]2(C)[C@@]1(OC(=O)c1ccco1)C(=O)CCl [MOMETASONEFUROATE, reference compound] |  |  | 1508 | 2936 | 56% | 140% |  |  |  | 
Oc1cc(O)c2c(c1)O[C@H](c1cc(O)c(O)c(O)c1)[C@H](O)C2 [EPIGALLOCATECHIN] |  |  | 864 | 28 | 33% | -20% |  |  |  | 
COc1cccc(O)c1O [3-METHOXYCATECHOL] |  |  | 736 | 116 | 28% | -15% |  |  |  | 
CC(=O)O[C@@H]1CC2C(C)(C)C(=O)C3OC3[C@]2(C)C2CC[C@@]3(C)[C@H](c4ccoc4)OC(=O)C4OC43[C@@]21C (some centres unmarked) [EPOXYGEDUNIN] | 28% | 43% | 784 | 988 |  |  |  |  |  | 
CC(=O)O[C@H]1CCC2(C)C3=C(CCC2C1(C)C)[C@@]1(C)CC[C@@H](C(C)CCC=C(C)C)[C@]1(C)CC3 (some centres unmarked) [EUPHOLACETATE] | 89% | 111% | 1710 | 2020 |  |  |  |  |  | 
CC(C)[C@@H](C)/C=C/[C@@H](C)[C@H]1CC[C@H]2C3=CC=C4C[C@@H](O)CC[C@]4(C)[C@H]3CC[C@]12C [ERGOSTEROL] |  |  | 1676 | 1640 | 86% | 86% |  |  |  | 
CN1CCc2cccc3c2[C@H]1Cc1ccc(O)c(O)c1-3 [APOMORPHINEHYDROCHLORIDE, reference compound] |  |  | 880 | 266 | 44% | -3% |  |  |  | 
CC1(C)C(C(Cl)Cl)C2(Cl)C(Cl)C(Cl)C1(Cl)C2(Cl)Cl (centres unmarked) [TOXAPHENE] |  |  | 5648 | 5632 | 395% | 226% |  |  |  | 
COc1ccc(/C=C/C(=O)c2ccc(O)cc2O)cc1OC [2′,4′-DIHYDROXY-3,4-DIMETHOXYCHALCONE] |  |  | 5876 | 3964 | 321% | 185% |  |  |  | 
COc1cc(O)c(C(=O)/C=C/c2ccc(O)c(OC)c2)c(OC)c1 [2′,4-DIHYDROXY-3,4′,6′-TRIMETHOXYCHALCONE] |  |  | 6104 | 7512 | 655% | 305% |  |  |  | 
COC(=O)c1c(C)cc(O)cc1O [METHYLORSELLINATE] |  |  | 640 | 368 | 31% | 1% |  |  |  | 
O=C(O)C(S)C(S)C(=O)O (centres unmarked) [2,3-DIMERCAPTOSUCCINICACID, reference compound] |  |  |  |  | 238% | 123% |  |  | 4452 | 2760
COC(=O)Nc1nc2cc(C(=O)c3ccccc3)ccc2[nH]1 [MEBENDAZOLE, reference compound] |  |  |  |  | 74% | 216% | 1872 | 3056 |  | 

SMILES | Activation 100 nL | Activation 200 nL | 100 nL (luminescence) [1] | 200 nL (luminescence) [2] | activation at 16 µM | activation at 32 µM | 100 nL (luminescence) [3] | 200 nL (luminescence) [4] | 100 nL (luminescence) | 200 nL (luminescence)
NC(=O)c1ccc(N)nc1 [6-AMINONICOTINAMIDE] |  |  |  |  | 26% | 1% | 756 | 344 |  | 
O=C(CC(=O)c1ccccc1)c1ccccc1 [DIBENZOYLMETHANE] |  |  |  |  | 66% | -8% |  |  | 1368 | 204
CC(C)c1ccc2c(c1)CC[C@H]1[C@](C)(C(N)=O)CCC[C@]21C [DEHYDROABIETAMIDE] |  |  |  |  | 66% | 135% |  |  |  | 
COc1cc(OC)c2c(=O)c(O)c(-c3ccc(OC)c(OC)c3)oc2c1 | 29% | 8% | 760 | 644 |  |  |  |  |  | 
O=C1OC(=O)[C@H]2[C@@H]1[C@@H]1CC[C@H]2O1 [NORCANTHARIDIN] | 45% | 10% | 756 | 572 |  |  |  |  |  | 
C=C1C2=CC(=O)O[C@@H](c3ccoc3)[C@]2(C)CC[C@@H]1[C@@]1(C)C=CC(=O)C(C)(C)[C@@H]1CC(=O)OC [DEOXYANDIROBIN] |  |  | 1816 | 1944 | 95% | 106% |  |  |  | 
CC1CCc2cc(F)cc3c(=O)c(C(=O)O)cn1c23 (centres unmarked) [FLUMEQUINE, reference compound] |  |  |  |  | 38% | -2% |  |  | 1156 | 368
COC1=CC(=O)C[C@@H](C)[C@]12Oc1c(Cl)c(OC)cc(OC)c1C2=O [GRISEOFULVIN, reference compound] |  |  | 1208 | 3684 | 41% | 182% |  |  |  | 
CC1(C)C2CC(=O)O[C@@]3(C)C4=CC(=O)O[C@@H](c5ccoc5)[C@]4(C)CCC3[C@@]2(C)C=C[C@H]1O (some centres unmarked) [DEOXYANDIROBINLACTONE] |  |  | 964 | 1124 | 40% | 52% |  |  |  | 
O=C(CC[N+](=O)[O-])OC[C@H]1O[C@@H](O)[C@H](OC(=O)CC[N+](=O)[O-])[C@@H](OC(=O)CC[N+](=O)[O-])[C@@H]1OC(=O)CC[N+](=O)[O-] [[…]] | 75% | 40% | 1020 | 1268 |  |  |  |  |  | 
CC(=O)Oc1cc2c(cc1OC(C)=O)[C@@H]1c3ccc(OC(C)=O)c(OC(C)=O)c3OC[C@]1(OC(C)=O)C2 [HAEMATOXYLINPENTAACETATE] | 50% | 37% | 1040 | 1304 |  |  |  |  |  | 
COc1cc(C/C=C/c2ccccc2)c(OC)cc1O [VIOLASTYRENE] |  |  | 2388 | 1096 | 133% | 50% |  |  |  | 
Nc1ncnc2c1ncn2[C@H]1C[C@H](O)[C@@H](CO)O1 [DEOXYADENOSINE] |  |  |  |  | 32% | -3% |  |  | 788 | 390
CC(CCc1ccccc1)NC(C)C(O)c1ccc(O)cc1 (centres unmarked) [NYLIDRINHYDROCHLORIDE, reference compound] |  |  |  |  | 42% | 22% |  |  |  | 
COc1cc2c(c(OC)c1OC)-c1ccc(=O)c(O)cc1[C@@H](NC(C)=O)CC2 [COLCHICEINE] |  |  | 672 | 584 | 35% | 11% |  |  |  | 
CNC(=O)Oc1cccc2c1OC(C)(C)O2 [BENDIOCARB] |  |  |  |  | 87% | 101% |  |  | 1532 | 2760
COc1cc2nc(N3CCN(C(=O)c4ccco4)CC3)nc(N)c2cc1OC [PRAZOSINHYDROCHLORIDE, reference compound] |  |  |  |  | 87% | 40% |  |  |  | 
O=C1C(O)=C(O)C(=O)C(O)=C1O [TETROQUINONE] |  |  | 908 | 720 | 26% | 27% |  |  |  | 
O=C1c2ccccc2C(=O)c2c(O)c(O)cc(O)c21 [PURPURIN] |  |  | 1176 | 952 | 54% | 41% |  |  |  | 
NC(=O)c1ccc[n+]([C@@H]2O[C@H](COP(=O)([O-])OP(=O)(O)OC[C@H]3O[C@@H](n4cnc5c(N)ncnc54)[C@H](O)[C@@H]3O)[C@@H](O)[C@H]2O)c1 [NADIDE, reference compound] |  |  |  |  | 31% | 16% | 640 | 712 |  | 
